# Measured values published in patent publication US6399618B1, “Compositions and methods for modulating sexual activity” (priority 1997, dated 2002).
# Structures can show the parent of a compound that is named as a salt. Marks after values point to notes of the source that are not given here.
# Assays:
# male rats [1] = assay: Rat sexual behavior, proerectile actions (injected); format: in vivo, SD rats; conditions: for Erections/60 minutes / Latency to the first erection: mean±sem; for Erections/60 minutes / Latency to the first erection / Responders: n=10
# Procedure: Male SD rats (350-450 g; n=10 per group) were injected with increasing doses of XVIb (4.0-64.0 mg/kg), XVIa (1.0, 4.0 or 16 mg/kg) or saline and observed 5 minutes later, in groups of 5, for the number of erections and the time to the first erection, over a 60 minutes observation period.
# In Table 2, the effects of XVIb, XVIa and saline on erection in male rats is indicated. Data is expressed as the mean±sem for 10 test animals. Data marked with an asterisk “*” indicate significant difference from saline (α<0.05) as determined by ANOVA with Tukey test for multiple comparisons.
# male primates [2] = assay: Sexual behavior in male primates, paired observation study (penile response grades); format: in vivo, macaca fascilaris; conditions: 1.0 mg/kg ip; N=3; observed 1 hour
# Procedure: Monkeys used for testing were separated from the cluster of cages and treated and observed in pairs in the middle of the housing environment.
# N=3 for all drug-treated animals, while N=18 for saline-treated animals. […] Data are expressed as the number of test animals having a particular grade of penile response. Penile responses were scored every 10 sec for 1 hour according to the following scale:
# Grade 0=glans are hidden from the view
# Grade 1=glans are clearly visible
# Grade 2=penis is extended
# Grade 4=erection with masturbation
# Grade 5=erection with masturbation and ejaculation
# [3] = system: noradrenaline pre-contracted rabbit CC; assay: Direct action on penile erection: tone of corpus cavernosal muscle strips in organ bath; conditions: concentration from 10^-8 M to 10^-4 M; n=6
# Procedure: Corpus cavernosal (CC) muscle strips were prepared from penises obtained from rabbit (n=6). CC strips were dissected free from tunica albungia and mounted in 10 or 25 mL organ baths containing Tyrode solution saturated with 95%O2/5% CO2 mixture.
# male rats [4] = assay: Rat sexual behavior, proerectile actions after oral administration; format: in vivo, SD rats
# Procedure: Male SD rats (250-300 g) were administered increasing doses of XVIb (30-100 mg/kg in distilled water, per os) or distilled water only via a feeding tube, and observed 5 minutes later for the number of erections (as characterized by penile grooming) over a 60 minute observation period. Six rats at a time, housed singly, were observed by two observers. Treatments were administered in a standard randomized and double blinded manner.
# male primates [5] = assay: Primate sexual behavior, isolated observation study; format: in vivo, Macaca fascilaris; conditions: for # of behavioral Purse Lip Gesture / # of behavioral Yawning / Grade 0 (glans hidden from view) / Grade 1 (glans clearly visible) / Grade 2 (penis extended) / Grade 3 (full erection) / Grade 4 (erection with masturbation) / Grade 5 (erection with masturbation and ejaculation): isolation, 1 hour, n=6
# Procedure: Adult male Macaca fascilaris (3.8-8 kg, n=6) were injected (0.1-10.0 mg/kg; ip; 0.5 mL/kg body weight) with either saline or compound XVIb and observed 10 minutes later for behavioral responses and locomotion for 1 hour. Monkeys used for testing were injected and observed in separate locations remote from housing environment. Each monkey received a dose of XVIb at 72 hour intervals.
# In Table 4, the effect of compound XVIb on erectile responses is reported for male primates observed in isolation. Data are expressed as mean (sem, standard error of measurements) for 6 test animals. Penile responses were scored every 10 seconds for 1 hour according to the following scale: Grade 0=glans hidden from view, Grade 1=glans clearly visible, Grade 2=penis extended, Grade 3=full erection, Grade 4=erection with masturbation, Grade 5=erection with masturbation and ejaculation. In Table 4, data marked with an asterisk “*” indicate a significant difference from saline as determined by repeated measures ANOVA and Dunnetts test for multiple comparisons (α<0.05). The data in Table 4 are reported as % genital observations.
# male rats [6] = assay: Antagonism of XVIb-induced erections by comparative compounds in rats; format: in vivo, SD rats; conditions: XVIb 16 mg/kg ip; n=6
# Procedure: Male SD rats (300-500 g; n=6 per group) were injected with (±)-Pindolol, scopolamine, haloperidol, or ketanserin, 30 minutes prior to injection of a single dose of XVIb (16 mg/kg, ip) or saline.
# male rats [7] = assay: Rat behavior, blood chemistry and body temperature; format: in vivo, SD rats
# Procedure: Male SD rats (350-450 g; n=15 per group) were injected with a single dose of XVIb (16 mg/kg, ip) and saline and observed 5 minutes later, in pairs, for erections, ejaculation, movement and grooming over a 60 minute observation period. Rectal temperature was recorded before drug administration and 1 hour after drug administration. At the end of experiments rats were decapitated and trunk blood was collected for RIA analysis of serum cortisol and prolactin levels.
# [8] = 16 mg/kg ip, RIA of trunk blood at end of experiment
compound,measurement,setting,value
"CN1CCN(C(=O)Cc2ccc3ccccc3c2)CC1 [Compound XVIb, 1-Methyl-4(2-naphthaleneacetyl)piperazine monohydrochloride]",Erections/60 minutes,male rats [1]; 4.0 mg/kg,2.1 ± 0.4
same,Latency to the first erection,male rats [1]; 4.0 mg/kg,2390 ± 238 s
same,Responders,male rats [1]; 4.0 mg/kg,100%
same,Erections/60 minutes,male rats [1]; 8.0 mg/kg,5.1 ± 0.6* #
same,Latency to the first erection,male rats [1]; 8.0 mg/kg,1299 ± 214 s
same,Responders,male rats [1]; 8.0 mg/kg,100%
same,Erections/60 minutes,male rats [1]; 16.0 mg/kg,7.7 ± 0.4* #
same,Latency to the first erection,male rats [1]; 16.0 mg/kg,654 ± 108* sec
same,Responders,male rats [1]; 16.0 mg/kg,100%
same,Erections/60 minutes,male rats [1]; 32.0 mg/kg,2.5 ± 0.2
same,Latency to the first erection,male rats [1]; 32.0 mg/kg,1046 ± 64* sec
same,Responders,male rats [1]; 32.0 mg/kg,100%
same,Erections/60 minutes,male rats [1]; 64.0 mg/kg,2.7 ± 0.5
same,Latency to the first erection,male rats [1]; 64.0 mg/kg,3319 ± 170* sec
same,Responders,male rats [1]; 64.0 mg/kg,100%
same,effect on penile erections (in words),male rats [1]; 60 minutes observation,produced erections in rats in a bell shaped dose-response fashion
same,dose at which the maximal effect on erections was observed,male rats [1]; doses 4.0-64.0 mg/kg,16 mg/kg
same,dose with minimal time to the first erection,male rats [1]; doses 4.0-64.0 mg/kg,16 mg/kg
same,number of test animals having Grade 0 penile response (glans are hidden from the view),male primates [2],1
same,number of test animals having Grade 1 penile response (glans are clearly visible),male primates [2],2
same,number of test animals having Grade 2 penile response (penis is extended),male primates [2],2
same,number of test animals having Grade 3 penile response (full erection),male primates [2],2
same,number of test animals having Grade 4 penile response (erection with masturbation),male primates [2],1
same,number of test animals having Grade 5 penile response (erection with masturbation and ejaculation),male primates [2],0
same,effect on tone of noradrenaline pre-contracted rabbit CC,[3],failed to reduce tone
same,Responders,male rats [4]; 30 mg/kg p.o.,100%
same,maximum number of erections/rat,male rats [4]; 30 mg/kg p.o.,3 h⁻¹
same,Responders,male rats [4]; 100 mg/kg p.o.,100%
same,maximum number of erections/rat,male rats [4]; 100 mg/kg p.o.,5 h⁻¹
same,# of behavioral Purse Lip Gesture,male primates [5]; 0.1 mg/kg ip,5.8 ± 3.9 #
same,# of behavioral Yawning,male primates [5]; 0.1 mg/kg ip,8.8 ± 4.5 #
same,Grade 0 (glans hidden from view),male primates [5]; 0.1 mg/kg ip,81.8 ± 8.2 % genital observations
same,Grade 1 (glans clearly visible),male primates [5]; 0.1 mg/kg ip,17.8 ± 7.9 % genital observations
same,Grade 2 (penis extended),male primates [5]; 0.1 mg/kg ip,0.4 ± 0.3 % genital observations
same,Grade 3 (full erection),male primates [5]; 0.1 mg/kg ip,0 ± 0 % genital observations
same,Grade 4 (erection with masturbation),male primates [5]; 0.1 mg/kg ip,0 ± 0 % genital observations
same,Grade 5 (erection with masturbation and ejaculation),male primates [5]; 0.1 mg/kg ip,0 ± 0 % genital observations
same,# of behavioral Purse Lip Gesture,male primates [5]; 0.3 mg/kg ip,10.2 ± 3.9 #
same,# of behavioral Yawning,male primates [5]; 0.3 mg/kg ip,11.7 ± 3.8 #
same,Grade 0 (glans hidden from view),male primates [5]; 0.3 mg/kg ip,67.3 ± 12.2 % genital observations
same,Grade 1 (glans clearly visible),male primates [5]; 0.3 mg/kg ip,32.8 ± 11.5 % genital observations
same,Grade 2 (penis extended),male primates [5]; 0.3 mg/kg ip,0.5 ± 0.5 % genital observations
same,Grade 3 (full erection),male primates [5]; 0.3 mg/kg ip,0 ± 0 % genital observations
same,Grade 4 (erection with masturbation),male primates [5]; 0.3 mg/kg ip,0 ± 0 % genital observations
same,Grade 5 (erection with masturbation and ejaculation),male primates [5]; 0.3 mg/kg ip,0 ± 0 % genital observations
same,# of behavioral Purse Lip Gesture,male primates [5]; 1.0 mg/kg ip,7.5 ± 3.4 #
same,# of behavioral Yawning,male primates [5]; 1.0 mg/kg ip,11.3 ± 2.5 #
same,Grade 0 (glans hidden from view),male primates [5]; 1.0 mg/kg ip,72.0 ± 12.0 % genital observations
same,Grade 1 (glans clearly visible),male primates [5]; 1.0 mg/kg ip,26.6 ± 10.6 % genital observations
same,Grade 2 (penis extended),male primates [5]; 1.0 mg/kg ip,1.4 ± 1.4 % genital observations
same,Grade 3 (full erection),male primates [5]; 1.0 mg/kg ip,0 ± 0 % genital observations
same,Grade 4 (erection with masturbation),male primates [5]; 1.0 mg/kg ip,0 ± 0 % genital observations
same,Grade 5 (erection with masturbation and ejaculation),male primates [5]; 1.0 mg/kg ip,0 ± 0 % genital observations
same,# of behavioral Purse Lip Gesture,male primates [5]; 3.0 mg/kg ip,14.0 ± 8.3 #
same,# of behavioral Yawning,male primates [5]; 3.0 mg/kg ip,13 ± 3.4 #
same,Grade 0 (glans hidden from view),male primates [5]; 3.0 mg/kg ip,56.8 ± 7.8 % genital observations
same,Grade 1 (glans clearly visible),male primates [5]; 3.0 mg/kg ip,42.1 ± 8.3 % genital observations
same,Grade 2 (penis extended),male primates [5]; 3.0 mg/kg ip,1.7 ± 1.4 % genital observations
same,Grade 3 (full erection),male primates [5]; 3.0 mg/kg ip,0.3 ± 0.3 % genital observations
same,Grade 4 (erection with masturbation),male primates [5]; 3.0 mg/kg ip,0 ± 0 % genital observations
same,Grade 5 (erection with masturbation and ejaculation),male primates [5]; 3.0 mg/kg ip,0 ± 0 % genital observations
same,# of behavioral Purse Lip Gesture,male primates [5]; 10.0 mg/kg ip,33 ± 14* #
same,# of behavioral Yawning,male primates [5]; 10.0 mg/kg ip,14.0 ± 4.0 #
same,Grade 0 (glans hidden from view),male primates [5]; 10.0 mg/kg ip,24.5 ± 7.6 % genital observations
same,Grade 1 (glans clearly visible),male primates [5]; 10.0 mg/kg ip,72.1 ± 7.7* % genital observations
same,Grade 2 (penis extended),male primates [5]; 10.0 mg/kg ip,2.5 ± 1.0 % genital observations
same,Grade 3 (full erection),male primates [5]; 10.0 mg/kg ip,0.9 ± 0.6 % genital observations
same,Grade 4 (erection with masturbation),male primates [5]; 10.0 mg/kg ip,0 ± 0 % genital observations
same,Grade 5 (erection with masturbation and ejaculation),male primates [5]; 10.0 mg/kg ip,0 ± 0 % genital observations
same,grade 1 penile erections (in words),"male primates [5]; 0.1-10 mg/kg, primates observed in isolation, significance only at the highest dose",dose dependently (0.1-10 mg/kg) increased grade 1 penile erections
same,Advanced grades of penile erection (grades 2-5) (in words),male primates [5]; any dose (0.1-10 mg/kg),not significantly affected at any dose
same,erections with XVIb without antagonist (pindolol comparison),male rats [6],7.8±1.4 erections/60 minutes
same,erections with XVIb without antagonist (scopolamine comparison),male rats [6],1.7 erections/60 minutes
same,Serum cortisol,male rats [7]; [8],not significantly altered
same,Serum prolactin,male rats [7]; [8],not significantly altered
same,Rearing,"male rats [7]; 16 mg/kg ip, n=15",77±5.9 rears/60 minutes
same,erections,"male rats [7]; 16 mg/kg ip, n=15",5.6±0.7 erections/60 minutes
same,locomotion,"male rats [7]; 16 mg/kg ip, n=15",20.7±3.3 moves
same,non-penile grooming,"male rats [7]; 16 mg/kg ip, n=15",22±4.8 grooms/60 minutes
same,penile grooming,"male rats [7]; 16 mg/kg ip, n=15",12.1±3.3 grooms/60 minutes
same,ejaculations,"male rats [7]; 16 mg/kg ip, n=15, 60 minute observation",1.8±0.1 ejaculations
same,Rectal temperature,"male rats [7]; 16 mg/kg, before and 1 hour after drug administration",not significantly altered
